{
  "source": "patent US11351185B2",
  "about": "“Use of isovalerylspiramycins as anti-cancer agents to inhibit metastasis” (priority 2020, dated 2022)",
  "origin": "cited, not measured here",
  "key": {"human cancer lines": {"system": "human cancer lines", "conditions": "MCF-7, MDA-MB-231, HepG2, A549, H460, H1299, 786-0, 769-P, U251, A172, U937, HeLa, PC3, PANC-1, TE-1, SGC-7901, HT-29, HL-60; cited from earlier work"}, "[1]": {"system": "in vivo cancer parameters", "conditions": "animal models; cited from earlier work"}},
  "data": [
    {"compound": "CO[C@@H]1[C@@H](O[C@@H]2O[C@H](C)[C@@H](O[C@H]3C[C@@](C)(O)[C@@H](OC(=O)CC(C)C)[C@H](C)O3)[C@H](N(C)C)[C@H]2O)[C@@H](CC=O)C[C@@H](C)[C@@H](O[C@H]2CC[C@H](N(C)C)[C@@H](C)O2)/C=C/C=C/C[C@@H](C)OC(=O)C[C@H]1OC(C)=O", "note": "[ISP II, 4″-isolvalerylspiramycin II]", "values": [
      {"measurement": "effect on proliferation in vitro of human cancer lines", "setting": "human cancer lines", "result": "inhibitory effect"},
      {"measurement": "in vivo cancer parameters such as tumor growth rate and relative tumor volume", "setting": "[1]", "result": "reduction"}
    ]},
    {"compound": "CCC(=O)O[C@@H]1CC(=O)O[C@H](C)C/C=C/C=C/[C@H](O[C@H]2CC[C@H](N(C)C)[C@@H](C)O2)[C@H](C)C[C@H](CC=O)[C@H](O[C@@H]2O[C@H](C)[C@@H](O[C@H]3C[C@@](C)(O)[C@@H](OC(=O)CC(C)C)[C@H](C)O3)[C@H](N(C)C)[C@H]2O)[C@H]1OC", "note": "[ISP III, 4″-isolvalerylspiramycin III]", "values": [
      {"measurement": "effect on proliferation in vitro of human cancer lines", "setting": "human cancer lines", "result": "inhibitory effect"},
      {"measurement": "in vivo cancer parameters such as tumor growth rate and relative tumor volume", "setting": "[1]", "result": "reduction"}
    ]}
  ]
}
